# Species on record: Rattus norvegicus
# Assay: Open TG-GATES - Regimen: Single
# Type: toxicity, organism-based, Sprague-Dawley
# Parameters: regimen Single, gender Male, age 6 weeks
# Details: in vivo, po, 15 mg/kg, route gavage; for TC / TP / gamma-GTP / ALP / ALT / AST / BUN / CRE / Ca / Cl / DBIL / GLC / IP / K / LDH / Na / PL / RALB / TBIL: tissue Plasma; for APTT / Bas / Eos / Fbg / Hb / Ht / Lym / MCH / MCHC / MCV / Mono / Neu / PT / Plat / RBC / Ret / WBC: tissue Blood; for KIDNEY_L / KIDNEY_R / KIDNEY_TOTAL: tissue Kidney; for LIVER: tissue Liver
structure (smiles),measurement,setting,value
O=P1(N(CCCl)CCCl)NCCCO1 (stereo not given) [CYCLOPHOSPHAMIDE ANHYDROUS],TC,"3 h, dose level Low",68.6 mg/dL
same,TP,"3 h, dose level Low",5.2 g/dL
same,gamma-GTP,"3 h, dose level Low",1.2 IU/L
same,TERMINAL_BW,"6 h, dose level High",193.9 g
same,TERMINAL_BW,"6 h, dose level Low",190.6 g
same,APTT,"6 h, dose level High",21.7 s
same,Bas,"6 h, dose level High",0%
same,Eos,"6 h, dose level High",0.6%
same,Fbg,"6 h, dose level High",313.4 mg/dL
same,Hb,"6 h, dose level High",13.3 g/dL
same,Ht,"6 h, dose level High",39.9%
same,Lym,"6 h, dose level High",79.4%
same,MCH,"6 h, dose level High",21.5 pg
same,MCHC,"6 h, dose level High",33.3%
same,MCV,"6 h, dose level High",64.8 fL
same,Mono,"6 h, dose level High",2.2%
same,Neu,"6 h, dose level High",17.4%
same,PT,"6 h, dose level High",15.6 s
same,Plat,"6 h, dose level High",122.7 x10_4/uL
same,RBC,"6 h, dose level High",616.8 x10_4/ul
same,Ret,"6 h, dose level High",9%
same,WBC,"6 h, dose level High",68.2 x10_2/uL
same,APTT,"6 h, dose level Low",20.3 s
same,Eos,"6 h, dose level Low",1.2%
same,Fbg,"6 h, dose level Low",302 mg/dL
same,Hb,"6 h, dose level Low",13 g/dL
same,Ht,"6 h, dose level Low",38.9%
same,Lym,"6 h, dose level Low",80.6%
same,MCH,"6 h, dose level Low",20.9 pg
same,MCHC,"6 h, dose level Low",33.4%
same,MCV,"6 h, dose level Low",62.4 fL
same,Mono,"6 h, dose level Low",2.4%
same,Neu,"6 h, dose level Low",15.8%
same,PT,"6 h, dose level Low",13.9 s
same,Plat,"6 h, dose level Low",115.7 x10_4/uL
same,RBC,"6 h, dose level Low",624 x10_4/ul
same,Ret,"6 h, dose level Low",8.9%
same,WBC,"6 h, dose level Low",71.4 x10_2/uL
same,KIDNEY_L,"6 h, dose level High",0.8 g
same,KIDNEY_R,"6 h, dose level High",0.9 g
same,KIDNEY_TOTAL,"6 h, dose level High",1.7 g
same,KIDNEY_R,"6 h, dose level Low",0.8 g
same,LIVER,"6 h, dose level High",8.4 g
same,LIVER,"6 h, dose level Low",7.6 g
same,ALP,"6 h, dose level High",1569.4 IU/L
same,ALT,"6 h, dose level High",39.2 IU/L
same,AST,"6 h, dose level High",74.8 IU/L
same,BUN,"6 h, dose level High",10.2 mg/dL
same,CRE,"6 h, dose level High",0.1 mg/dL
same,Ca,"6 h, dose level High",10.7 mg/dL
same,Cl,"6 h, dose level High",106.8 meq/L
same,DBIL,"6 h, dose level High",0 mg/dL
same,GLC,"6 h, dose level High",185.8 mg/dL
same,IP,"6 h, dose level High",10.4 mg/dL
same,K,"6 h, dose level High",4.5 meq/L
same,LDH,"6 h, dose level High",216.8 IU/L
same,Na,"6 h, dose level High",143.2 meq/L
same,PL,"6 h, dose level High",144 mg/dL
same,RALB,"6 h, dose level High",2.9 g/dL
same,TBIL,"6 h, dose level High",0.032 mg/dL
same,TC,"6 h, dose level High",81.8 mg/dL
same,TP,"6 h, dose level High",5.4 g/dL
same,gamma-GTP,"6 h, dose level High",1.2 IU/L
same,ALP,"6 h, dose level Low",1365.4 IU/L
same,ALT,"6 h, dose level Low",33.2 IU/L
same,AST,"6 h, dose level Low",70.4 IU/L
same,BUN,"6 h, dose level Low",8.4 mg/dL
same,CRE,"6 h, dose level Low",0.2 mg/dL
same,Ca,"6 h, dose level Low",10.9 mg/dL
same,Cl,"6 h, dose level Low",107 meq/L
same,DBIL,"6 h, dose level Low",0.014 mg/dL
same,GLC,"6 h, dose level Low",168.2 mg/dL
same,IP,"6 h, dose level Low",9 mg/dL
same,K,"6 h, dose level Low",4.3 meq/L
same,LDH,"6 h, dose level Low",83.8 IU/L
same,Na,"6 h, dose level Low",142 meq/L
same,PL,"6 h, dose level Low",141.6 mg/dL
same,RALB,"6 h, dose level Low",2.5 g/dL
same,TBIL,"6 h, dose level Low",0.072 mg/dL
same,TC,"6 h, dose level Low",79 mg/dL
same,TP,"6 h, dose level Low",5.3 g/dL
same,TERMINAL_BW,"9 h, dose level High",185.5 g
same,TERMINAL_BW,"9 h, dose level Low",184.1 g
same,APTT,"9 h, dose level High",20.7 s
same,Bas,"9 h, dose level High",0%
same,Eos,"9 h, dose level High",0.8%
same,Fbg,"9 h, dose level High",320.4 mg/dL
same,Hb,"9 h, dose level High",13.2 g/dL
same,Ht,"9 h, dose level High",39.3%
same,Lym,"9 h, dose level High",78%
same,MCH,"9 h, dose level High",21 pg
same,MCHC,"9 h, dose level High",33.6%
same,MCV,"9 h, dose level High",62.4 fL
same,Mono,"9 h, dose level High",2.2%
same,Neu,"9 h, dose level High",19%
same,PT,"9 h, dose level High",16.2 s
same,Plat,"9 h, dose level High",113.9 x10_4/uL
same,RBC,"9 h, dose level High",631 x10_4/ul
same,Ret,"9 h, dose level High",7.3%
same,WBC,"9 h, dose level High",57.8 x10_2/uL
same,APTT,"9 h, dose level Low",16.7 s
same,Eos,"9 h, dose level Low",1%
same,Fbg,"9 h, dose level Low",285.6 mg/dL
same,Hb,"9 h, dose level Low",12.7 g/dL
same,Ht,"9 h, dose level Low",37.6%
same,Lym,"9 h, dose level Low",75%
same,MCH,"9 h, dose level Low",20.8 pg
same,MCHC,"9 h, dose level Low",33.7%
same,MCV,"9 h, dose level Low",61.8 fL
same,Neu,"9 h, dose level Low",21.4%
same,PT,"9 h, dose level Low",14 s
same,Plat,"9 h, dose level Low",120.4 x10_4/uL
same,RBC,"9 h, dose level Low",608.4 x10_4/ul
same,Ret,"9 h, dose level Low",8.8%
same,WBC,"9 h, dose level Low",67.8 x10_2/uL
same,KIDNEY_L,"9 h, dose level High",0.8 g
same,KIDNEY_R,"9 h, dose level High",0.9 g
same,KIDNEY_TOTAL,"9 h, dose level High",1.7 g
same,KIDNEY_R,"9 h, dose level Low",0.8 g
same,KIDNEY_TOTAL,"9 h, dose level Low",1.6 g
same,LIVER,"9 h, dose level High",7.5 g
same,LIVER,"9 h, dose level Low",6.9 g
same,ALP,"9 h, dose level High",1487.4 IU/L
same,ALT,"9 h, dose level High",34.8 IU/L
same,AST,"9 h, dose level High",67.4 IU/L
same,BUN,"9 h, dose level High",9.2 mg/dL
same,CRE,"9 h, dose level High",0.2 mg/dL
same,Ca,"9 h, dose level High",10.5 mg/dL
same,Cl,"9 h, dose level High",107.4 meq/L
same,DBIL,"9 h, dose level High",0.002 mg/dL
same,GLC,"9 h, dose level High",186 mg/dL
same,IP,"9 h, dose level High",10.1 mg/dL
same,K,"9 h, dose level High",3.9 meq/L
same,LDH,"9 h, dose level High",185.4 IU/L
same,Na,"9 h, dose level High",143.4 meq/L
same,PL,"9 h, dose level High",123.8 mg/dL
same,RALB,"9 h, dose level High",3 g/dL
same,TBIL,"9 h, dose level High",0.032 mg/dL
same,TC,"9 h, dose level High",69.2 mg/dL
same,TP,"9 h, dose level High",5.4 g/dL

# From ChEMBL document CHEMBL3885861, “Open TG-GATES”
